Laboratory results published in US11458135B2, “Combination of pure 5-HT6 receptor antagonists with acetylcholinesterase inhibitors” (priority 2016, dated 2022).
Where a name gives a salt, the structure may show the parent alone.

Key:
[1] = tested on: acetylcholine levels in ventral hippocampus of male Wistar rats; experiment: Acetylcholine modulation in ventral hippocampus (microdialysis), test compound alone; format: in vivo, rat
Excerpt: Male Wistar rats (240-300 g body weight) were stereotaxically implanted with a microdialysis guide cannula in ventral hippocampus (AP: −5.2 mm, ML: +5.0 mm, DV: −3.8 mm) under isoflurane anesthesia. […] The rats were allowed to recover individually for four-five days in a round bottom Plexiglas bowl with free access to feed and water.
One day prior to the microdialysis experiment, rats were connected to a dual quartz lined two-channel liquid swivel (Instech, UK) on a counter balance lever arm, which allowed unrestricted movements of the animal. […] On the day of experiment, perfusion rate was changed to 1.2 μL/min and stabilization period of atleast 2 hours was maintained. […] Dialysate samples were collected for additional period of 6 h using CMA/170 refrigerated fraction collector.
All microdialysis data were plotted as percent change from mean dialysate basal concentrations with 100% defined as the average of five predose values. The AUC was calculated by trapezoidal rule using WinNonlin® (5.0.1 version, Pharsight Corp. CA). The statistical significance between the mean AUC values of treatment group with vehicle was calculated using Dunnett's multiple comparison test. For each treatment group, the percent increase in acetylcholine levels was compared to the vehicle group using two-way analysis of variance (time and treatment), followed by Bonferroni post test. […]

[2] = Rodent pharmacokinetic study for assessment of drug interaction; settings: compound 1 3 mg/kg, p.o., donepezil 1 mg/kg, s.c.; male Wistar rats
Method: Male Wistar rats (260±50 grams) were used as experimental animals. Animals were housed individually in polypropylene cages and acclimatized for three days prior to study.
Blood was collected through retro orbital plexus under isoflurane anesthesia. Collected blood was transferred into a pre-labeled eppendorf tube containing 10 μL of sodium heparin as an anticoagulant. Blood samples were collected at following time points: 0.33, 0.66, 1, 1.5, 2, 4, 6, 8 and 24 hours post dose. Blood was centrifuged at 4000 rpm for 10 minutes. Plasma was separated and stored frozen at −80 ° C. until analysis. […] The test compounds were quantified in the calibration range around 0.05-100 ng/mL in plasma. Study samples were analyzed using calibration samples in the batch and quality control samples spread across the batch.
Pharmacokinetic parameters Cmax, Tmax and AUClast were calculated by non-compartmental model using Phoenix WinNonlin 6.4.0 version Software package.

[3] = molecular target: human recombinant 5-HT2A receptor (Homo sapiens (Human), UniProt P28223); experiment: Determination of Ki value at 5-HT2A receptor (radioligand binding, [3H]-Ketanserine); settings: [3H]-Ketanserine 1.75 nM, average of three independent experiments
Excerpt: The reaction was terminated by rapid vacuum filtration onto the glass fiber filters.

[4] = tested on: acetylcholine levels in ventral hippocampus of male Wistar rats; experiment: Acetylcholine modulation in ventral hippocampus (microdialysis), combination treatment; format: in vivo, rat; settings: s.c. alone
Excerpt: However, there were minor modifications in the microdialysis experiment.
After surgical recovery of 4-5 days, male Wistar rats were connected to dual quartz lined two-channel liquid swivel (Instech, UK) on a counter balance lever arm, which allowed unrestricted movements of the animal. Sixteen hours before start of study, a pre-equilibrated microdialysis probe (4 mm dialysis membrane) was inserted into the ventral hippocampus through the guide cannula. On the day of study, the probe was perfused with aCSF at a flow rate of 1.5 μL/min and a stabilization period of 2 h was maintained. […] Dialysates were stored below −50° C. prior to analysis.
All microdialysis data for acetylcholine was plotted as percent change from mean dialysate basal concentrations with 100% defined as the average of five pre-dose values. […] Statistical significance was considered at a p value less than 0.05. Incorrect probe placement was considered as criteria to reject the data from animal.

[5] = tested on: theta power in dorsal hippocampus of anesthetized male Wistar rats; experiment: Evoked theta modulation in dorsal hippocampus of anesthetized male Wistar rats; format: in vivo, rat; settings: donepezil 0.3 mg/kg, i.v. alone
Method: Additionally one electrode was implanted into the cerebellum which served as a reference. Hippocampal θ rhythm was evoked via a 6-s electrical stimulation train (20-160 μA, 0.3-ms pulse duration, 250 Hz) delivered to the NPO at a rate of 0.01 trains/s with a Grass S88 stimulator and PSIU6 stimulus isolation unit (Grass Medical Instruments, Quincy, Mass.). EEG was recorded at a rate of 1000 Hz using Ponemah (Version 5.2) software and stored for off-line analysis using NeuroScore™ (Version 3.0). Baseline amplitude level was achieved by using the current required to elicit θ rhythm to 50% of the maximal amplitude under control conditions.
Power in the θ rhythm frequency in the stimulation period during the 30 min baseline period was calculated and the percent changes in these measures post treatment were calculated. […] Statistical significance was considered at a p value less than 0.05.

COc1ccc2c(c1)c(CN1CCN(C)CC1)cn2S(=O)(=O)c1ccccc1Br [Compound 1, 1-[(2-Bromophenyl)sulfonyl]-5-methoxy-3-[(4-methyl-1-piperazinyl)methyl]-1H-indole dimesylate monohydrate]
increase in hippocampal acetylcholine levels ([1]; 3 mg/kg, p.o., ventral hippocampus, male Wistar rats): about 172% | Area under the curve value of acetylcholine change vs vehicle treatment ([1]; compound 1 p.o., FIG. 2): significantly higher | difference in plasma exposures administered alone or in combination [2]: No significant difference

COc1ccc2c(c1)c(CN1CCN(C)CC1)cn2S(=O)(=O)c1ccc(F)cc1 [Compound 2, 1-[(4-Fluorophenyl)sulfonyl]-5-methoxy-3-[(4-methyl-1-piperazinyl)methyl]-1H-indole dihydrochloride]
Ki [3]: > 10 µM

COc1cc2c(cc1OC)C(=O)C(CC1CCN(Cc3ccccc3)CC1)C2 (stereo not shown) [Donepezil]
maximum hippocampal acetylcholine levels ([4]; donepezil 1 mg/kg): 703±134 % of basal levels | hippocampal theta power [5]: moderate increase

CCN(C)C(=O)Oc1cccc([C@H](C)N(C)C)c1 [rivastigmine, Rivastigmine]
increase in hippocampal acetylcholine level ([4]; rivastigmine 0.5 mg/kg): about 3 fold
